Patent publication US20250205248A1, “REPURPOSING VARENICLINE AS AN ANTI-INFLAMMATORY AGENT WITH ITS SUPPRESSOR EFFECTS ON INFLAMMATORY CYTOKINES” (IZMIR EKONOMI UNIVERSITESI, priority 2022, published 2025)
Where a name gives a salt, the structure may show the parent alone.

Tests used:
[1] = tested on: LPS-activated RAW264.7 macrophage cell cultures; settings: cited from earlier work
sepsis = settings: cited from earlier work
[2] = tested on: RAW 264.7 murine macrophage cells; assay: LPS-induced inflammatory cytokine levels (IL-1β, IL-6, TNFα) by ELISA in RAW 264.7 cells; assay type: cell-based; settings: for IL-1β level in presence of nAChR antagonist / IL-6 level in presence of nAChR antagonist / TNFα level in presence of nAChR antagonist: antagonist 30 minutes before varenicline and LPS, compared to varenicline-treated groups
Description: RAW 264.7 murine macrophage cells maintained in culture media supplemented with heat inactivated FBS (10%) and penicillin (100 U/ml) and streptomycin (100 μg/ml) at 37° C. in a 5% CO2 incubator were used during the experimental studies. The cells (500,000/well) were seeded in 48-well culture plates after detachment with scraping incubated for 24 h in serum-free media for reattachment to the surface. In the first group, the cells were treated with LPS at increasing concentrations to determine the effective concentration at which cytokines are released. In the second group, the cells were pretreated with varenicline tartarate with increasing concentrations in presence of LPS to determine effective varenicline concentration on LPS-induced cytokine levels. Additionally, the anti-inflammatory effect of varenicline was compared with that of dexamethasone. In the third group, a non-selective nicotinic ACh receptor antagonist mecamylamine hydrochloride and a selective α7nAChR antagonist methyllycaconitine citrate were applied prior to varenicline and LPS administration in order to investigate the involvement of nicotinic receptors.
The inflammatory response of macrophage cells was evaluated by the change in inflammatory cytokine levels (IL-1β, IL-6 and TNFα) after 24 hours. In other groups where the effect of varenicline will be investigated, the LPS concentration, which triggers the increase in all cytokines determined in the first group and employed for the induction of inflammatory response. Increasing concentrations of varenicline were administered 30 minutes before LPS administration, LPS-induced cytokine levels were analyzed at the end of 24-hour protocol and the effective concentration on cytokine levels were determined in the second group. The effective concentration of varenicline was used in the third group in which the receptor-mediated effects investigated.
(§1) Antagonist drugs was applied 30 minutes before varenicline and LPS applications. Thus, the role of α7nAChRs and activation of the cholinergic anti-inflammatory pathway was determined at the end of 24-hour protocol by examining LPS-induced inflammatory cytokine levels (IL-1β, IL-6 and TNFα) in addition to 40 different cytokines and chemokines.
(§2) The results are as follows for the application of the invention. (1) Cytokine levels (IL-1β, IL-6 and TNFα) examined by the ELISA method were increased at the end of 24-hour protocol after induced by LPS in RAW 264.7 cells.

RAW 264.7 macrophages = assay: LPS-induced cytokine and chemokine panel in RAW 264.7 macrophages; assay type: cell-based, mouse
Description: FIGS. 6A-6C. Effects of varenicline on LPS-induced 14 mouse cytokines levels in RAW 264.7 macrophages.
as §1, §2

[3] = tested on: RAW 264.7 murine macrophage cells; assay: LPS-induced cell proliferation; assay type: cell-based
Description: (§3) Here, in the application subject invention, the anti-inflammatory potential of varenicline, which is used in the treatment of smoking cessation, was determined for the first time by suppressing increased cytokine levels in inflammatory conditions. According to the current study, the anti-inflammatory activity of varenicline is not limited to its suppression of cytokine levels, but is also associated with suppressed proliferation and macrophage migration rates (FIGS. 4A-6C).
FIGS. 4A-4B. Effects of varenicline on LPS-induced cell proliferation in the presence or absence of nAChR antagonists.
(§4) This invention points out repurposing of varenicline and provides mechanical insights about the effects of varenicline on α7nAChR-mediated activation of cholinergic anti-inflammatory pathway (CAP), cell proliferation, and migration in the in vitro inflammation model induced by LPS.

[4] = tested on: RAW 264.7 murine macrophage cells; assay: LPS-induced macrophage migration; assay type: cell-based
Description: as §3
FIGS. 5A-5B. Effects of varenicline on LPS-induced cell migration in the presence or absence of nAChR antagonists
as §4

α4β2nAChRs = α4β2nAChRs (Homo sapiens, UniProt P17787+P43681); settings: central nervous system; cited from earlier work
α7nAChRs = α7nAChRs (Homo sapiens, UniProt P36544); settings: cited from earlier work
[5] = tested on: transient middle cerebral artery ischemia model; settings: mice, treatment for one week, cited from earlier work
[6] = tested on: emphysema induced by porcine pancreatic elastase; settings: mice, PPE emphysema, cited from earlier work
smokers = settings: 3 months of treatment; cited from earlier work
[7] = tested on: RAW 264.7 macrophage cells stimulated with LPS; settings: via α7nAChR activation; LPS-stimulated RAW 264.7; cited from earlier work
[8] = varenicline 30 minutes before LPS, 24-hour protocol, compared to the LPS group

α4β2nAChRs, sequence (P43681 29-627 limits assumed): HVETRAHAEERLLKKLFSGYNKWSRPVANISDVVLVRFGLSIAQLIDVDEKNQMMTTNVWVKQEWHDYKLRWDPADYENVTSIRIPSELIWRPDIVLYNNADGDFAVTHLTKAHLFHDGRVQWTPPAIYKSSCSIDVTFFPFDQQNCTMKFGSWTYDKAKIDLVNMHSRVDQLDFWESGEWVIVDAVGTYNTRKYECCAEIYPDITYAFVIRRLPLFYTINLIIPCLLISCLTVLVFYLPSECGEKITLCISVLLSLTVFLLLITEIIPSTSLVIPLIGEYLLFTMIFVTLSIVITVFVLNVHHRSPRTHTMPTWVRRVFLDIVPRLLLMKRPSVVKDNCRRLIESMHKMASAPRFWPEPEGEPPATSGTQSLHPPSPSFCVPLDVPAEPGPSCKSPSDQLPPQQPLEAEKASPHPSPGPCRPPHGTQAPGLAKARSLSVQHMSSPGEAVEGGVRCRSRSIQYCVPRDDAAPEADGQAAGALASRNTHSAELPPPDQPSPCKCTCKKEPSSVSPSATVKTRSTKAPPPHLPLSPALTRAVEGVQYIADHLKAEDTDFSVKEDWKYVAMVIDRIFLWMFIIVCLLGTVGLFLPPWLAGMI
α4β2nAChRs, sequence (P17787 26-502): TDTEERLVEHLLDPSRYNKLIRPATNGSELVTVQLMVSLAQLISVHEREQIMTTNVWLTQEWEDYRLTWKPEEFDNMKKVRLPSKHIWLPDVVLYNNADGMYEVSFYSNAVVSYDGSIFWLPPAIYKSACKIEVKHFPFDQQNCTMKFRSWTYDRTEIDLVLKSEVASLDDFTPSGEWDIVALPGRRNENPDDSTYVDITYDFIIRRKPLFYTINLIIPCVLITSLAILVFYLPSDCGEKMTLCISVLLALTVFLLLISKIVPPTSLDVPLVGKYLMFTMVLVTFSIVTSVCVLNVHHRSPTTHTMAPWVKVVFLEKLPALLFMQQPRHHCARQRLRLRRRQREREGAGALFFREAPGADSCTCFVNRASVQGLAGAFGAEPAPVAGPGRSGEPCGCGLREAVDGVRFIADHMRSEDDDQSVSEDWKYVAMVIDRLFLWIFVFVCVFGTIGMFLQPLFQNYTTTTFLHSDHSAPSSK
α7nAChRs, sequence (P36544 23-502): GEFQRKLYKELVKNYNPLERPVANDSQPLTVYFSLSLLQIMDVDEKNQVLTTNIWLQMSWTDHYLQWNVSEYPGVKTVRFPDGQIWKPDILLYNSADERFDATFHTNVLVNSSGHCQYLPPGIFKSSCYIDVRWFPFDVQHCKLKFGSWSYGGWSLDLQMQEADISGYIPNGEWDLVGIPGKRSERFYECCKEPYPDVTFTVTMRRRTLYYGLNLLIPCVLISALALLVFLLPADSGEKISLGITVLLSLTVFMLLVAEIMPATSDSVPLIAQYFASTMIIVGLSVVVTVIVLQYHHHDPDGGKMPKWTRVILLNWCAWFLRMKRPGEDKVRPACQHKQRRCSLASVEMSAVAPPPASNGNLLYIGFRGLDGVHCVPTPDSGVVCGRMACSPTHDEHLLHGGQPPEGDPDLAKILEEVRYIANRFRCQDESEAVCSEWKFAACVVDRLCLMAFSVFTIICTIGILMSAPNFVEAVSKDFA

## COc1ccc(/C=C2\CCCN=C2c2cccnc2)c(OC)c1 [GTS-21]
[1]
  HMGB-1 level: significantly reduces
  TNFα level: significantly reduces
sepsis
  cytokine levels that increased due to inflammation: decreased
  life span of experimental animals: extended

## CNC1(C)C2CCC(C2)C1(C)C (stereo not shown) [MEC, mecamylamine hydrochloride]
[2]
  IL-1β level in presence of nAChR antagonist: significantly increased
  IL-6 level in presence of nAChR antagonist: significantly increased
  TNFα level in presence of nAChR antagonist: significantly increased

## c1cnc2cc3c(cc2n1)[C@@H]1CNC[C@H]3C1 [Varenicline, varenicline]
[2]; [8]
  IL-1β level: significantly decreased
  IL-6 level: significantly decreased
  TNFα level: significantly decreased
RAW 264.7 macrophages
  LPS-induced 14 different cytokines and chemokines (G-CSF, GM-CSF, IL-1, IL-6, IL-27, IL-1ra, IP-10, MCP-1, MIP-1, RANTES, TNF α): significantly decreased
[3]
  proliferation rate: suppressed
[4]
  macrophage migration rate: suppressed
α4β2nAChRs
  effect on α4β2nAChRs: partial agonistic effect
α7nAChRs
  effect on α7nAChRs: potent and complete agonist
[5]
  use of damaged forelimbs: increased
[5]; immunohistochemical analysis
  inflammation in the corpus striatum: decreased
[6]; immunohistochemical analysis
  inflammation: reduce
[6]; with activation of α7nAChR
  number of T cells in tissue: significantly reduced
  number of macrophages in tissue: significantly reduced
  number of neutrophils in tissue: significantly reduced
smokers
  atherosclerosis: reduced
  endothelial damage: reduced
  oxidative stress: reduced

## CN1CCCC1c1cccnc1 (stereo not shown) [nicotine]
[7]
  TNFα levels: decrease

## methyllycaconitine citrate [MLA]
[2]
  IL-1β level in presence of nAChR antagonist: significantly increased
  IL-6 level in presence of nAChR antagonist: significantly increased
  TNFα level in presence of nAChR antagonist: significantly increased
